Where “and” joins values, the source holds several entries; their conditions need not be identical. Equal entries are not always repeated.
Conditions: Liquid, Vibrating tube method

CCCCn1cc[n+](C)c1.O=S(=O)([O-])C(F)(F)F [1-butyl-3-methylimidazolium trifluoromethanesulfonate]
Conditions	mass density
283.14 K, 20345 kPa	1320.61 kg/m3
283.15 K, 101 kPa	1309.81 kg/m3 and 1309.8 kg/m3
283.15 K, 5337 kPa	1312.37 kg/m3
283.15 K, 9906 kPa	1315.03 kg/m3
283.15 K, 29997 kPa	1325.6 kg/m3
283.15 K, 90097 kPa	1353.37 kg/m3
283.15 K, 100086 kPa	1357.13 kg/m3
283.15 K, 109957 kPa	1361.36 kg/m3
283.15 K, 119997 kPa	1365.53 kg/m3
283.15 K, 129993 kPa	1369.54 kg/m3
283.15 K, 139996 kPa	1373.39 kg/m3
283.16 K, 49996 kPa	1335.42 kg/m3
283.16 K, 60363 kPa	1340.27 kg/m3
283.16 K, 69993 kPa	1344.64 kg/m3
283.16 K, 79621 kPa	1348.88 kg/m3
283.17 K, 1225 kPa	1310.35 kg/m3
283.17 K, 40094 kPa	1330.63 kg/m3
288.15 K, 101 kPa	1305.77 kg/m3
293.15 K, 101 kPa	1301.75 kg/m3 and 1301.72 kg/m3
293.15 K, 9722 kPa	1307 kg/m3
293.15 K, 20425 kPa	1312.86 kg/m3
293.15 K, 29997 kPa	1317.9 kg/m3
293.15 K, 49997 kPa	1327.93 kg/m3
293.15 K, 69996 kPa	1337.34 kg/m3
293.15 K, 89996 kPa	1346.17 kg/m3
293.15 K, 109846 kPa	1354.33 kg/m3
293.15 K, 119150 kPa	1358.24 kg/m3
293.15 K, 129846 kPa	1362.58 kg/m3
293.15 K, 138949 kPa	1366.14 kg/m3
293.16 K, 40322 kPa	1323.16 kg/m3
293.16 K, 60340 kPa	1332.87 kg/m3
293.16 K, 100028 kPa	1350.06 kg/m3
293.17 K, 80507 kPa	1342.04 kg/m3
293.2 K, 1740 kPa	1302.55 kg/m3
293.2 K, 4978 kPa	1304.2 kg/m3
298.13 K, 30005 kPa	1314.25 kg/m3
298.13 K, 90001 kPa	1342.82 kg/m3
298.14 K, 59968 kPa	1329.2 kg/m3
298.15 K, 101 kPa	1297.74 kg/m3 and 1297.8 kg/m3
298.15 K, 1023 kPa	1298.28 kg/m3
298.15 K, 10006 kPa	1303.37 kg/m3
298.15 K, 19968 kPa	1308.89 kg/m3
298.15 K, 40008 kPa	1319.41 kg/m3
298.15 K, 49962 kPa	1324.37 kg/m3
298.15 K, 70005 kPa	1333.89 kg/m3
298.15 K, 79986 kPa	1338.41 kg/m3
298.15 K, 99997 kPa	1347.1 kg/m3
298.15 K, 109968 kPa	1351.04 kg/m3
298.15 K, 120001 kPa	1355.27 kg/m3
298.15 K, 139996 kPa	1363.31 kg/m3
298.16 K, 5026 kPa	1300.4 kg/m3
298.16 K, 130002 kPa	1359.35 kg/m3
303.15 K, 101 kPa	1293.74 kg/m3
313.13 K, 101 kPa	1285.81 kg/m3
313.15 K, 101 kPa	1285.7 kg/m3
313.15 K, 10395 kPa	1291.48 kg/m3
313.15 K, 20326 kPa	1296.92 kg/m3
313.15 K, 29996 kPa	1302.11 kg/m3
313.15 K, 40009 kPa	1307.36 kg/m3
313.15 K, 49994 kPa	1312.48 kg/m3
313.15 K, 70102 kPa	1322.42 kg/m3
313.15 K, 79871 kPa	1327.08 kg/m3
313.15 K, 90021 kPa	1331.79 kg/m3
313.15 K, 99922 kPa	1336.27 kg/m3
313.15 K, 109826 kPa	1340.63 kg/m3
313.15 K, 121633 kPa	1345.69 kg/m3
313.15 K, 129825 kPa	1349.1 kg/m3
313.15 K, 139153 kPa	1352.88 kg/m3
313.16 K, 60130 kPa	1317.55 kg/m3
313.2 K, 1097 kPa	1286.27 kg/m3
313.2 K, 5364 kPa	1288.67 kg/m3
333.09 K, 1557 kPa	1270.96 kg/m3
333.1 K, 5234 kPa	1273.19 kg/m3
333.11 K, 9847 kPa	1275.96 kg/m3
333.14 K, 19578 kPa	1281.68 kg/m3
333.15 K, 101 kPa	1270.09 kg/m3 and 1270.06 kg/m3
333.15 K, 29996 kPa	1287.62 kg/m3
333.15 K, 69992 kPa	1308.75 kg/m3
333.15 K, 79293 kPa	1313.31 kg/m3
333.15 K, 89992 kPa	1318.4 kg/m3
333.15 K, 98041 kPa	1322.14 kg/m3
333.15 K, 109813 kPa	1327.45 kg/m3
333.16 K, 49998 kPa	1298.5 kg/m3
333.16 K, 59777 kPa	1303.59 kg/m3
333.16 K, 119774 kPa	1331.81 kg/m3
333.16 K, 129813 kPa	1336.09 kg/m3
333.16 K, 138881 kPa	1339.86 kg/m3
333.17 K, 39827 kPa	1293.05 kg/m3
343.15 K, 101 kPa	1262.32 kg/m3
353.13 K, 5397 kPa	1257.9 kg/m3
353.14 K, 1725 kPa	1255.5 kg/m3
353.14 K, 10408 kPa	1261.13 kg/m3
353.14 K, 60245 kPa	1290.27 kg/m3
353.14 K, 69993 kPa	1295.39 kg/m3
353.14 K, 79196 kPa	1300.06 kg/m3
353.14 K, 119409 kPa	1318.82 kg/m3
353.15 K, 101 kPa	1254.61 kg/m3 and 1254.43 kg/m3
353.15 K, 49992 kPa	1284.69 kg/m3
353.15 K, 89993 kPa	1305.36 kg/m3
353.15 K, 97743 kPa	1309.04 kg/m3
353.15 K, 109795 kPa	1314.57 kg/m3
353.15 K, 129794 kPa	1323.26 kg/m3
353.16 K, 40316 kPa	1279.23 kg/m3
353.16 K, 139089 kPa	1327.11 kg/m3
353.17 K, 29996 kPa	1273.21 kg/m3
353.19 K, 20124 kPa	1267.23 kg/m3
373.12 K, 78937 kPa	1286.82 kg/m3
373.14 K, 1630 kPa	1240.5 kg/m3
373.14 K, 4913 kPa	1242.76 kg/m3
373.14 K, 40245 kPa	1265.34 kg/m3
373.14 K, 69993 kPa	1282.13 kg/m3
373.14 K, 89993 kPa	1292.43 kg/m3
373.14 K, 99354 kPa	1297.01 kg/m3
373.14 K, 109823 kPa	1301.97 kg/m3
373.15 K, 101 kPa	1239.37 kg/m3 and 1239.44 kg/m3
373.15 K, 20238 kPa	1252.94 kg/m3
373.15 K, 29993 kPa	1259.1 kg/m3
373.15 K, 49994 kPa	1271.05 kg/m3
373.15 K, 59359 kPa	1276.34 kg/m3
373.15 K, 118844 kPa	1306.11 kg/m3
373.15 K, 129824 kPa	1311 kg/m3
373.15 K, 139225 kPa	1315.08 kg/m3
373.16 K, 10553 kPa	1246.58 kg/m3
393.12 K, 20141 kPa	1238.76 kg/m3
393.13 K, 29997 kPa	1245.39 kg/m3
393.13 K, 39789 kPa	1251.72 kg/m3
393.14 K, 10362 kPa	1231.9 kg/m3
393.14 K, 99285 kPa	1284.99 kg/m3
393.14 K, 118691 kPa	1294.13 kg/m3
393.15 K, 101 kPa	1224.37 kg/m3 and 1224.41 kg/m3
393.15 K, 49984 kPa	1258.04 kg/m3
393.15 K, 69997 kPa	1269.67 kg/m3
393.15 K, 89992 kPa	1280.34 kg/m3
393.15 K, 109795 kPa	1290.04 kg/m3
393.15 K, 129796 kPa	1299.01 kg/m3
393.15 K, 139693 kPa	1303.18 kg/m3
393.16 K, 60109 kPa	1264.05 kg/m3
393.16 K, 79320 kPa	1274.76 kg/m3
393.17 K, 1385 kPa	1225.37 kg/m3
393.18 K, 5168 kPa	1228.15 kg/m3
413.13 K, 1691 kPa	1210.63 kg/m3
413.13 K, 99873 kPa	1273.17 kg/m3
413.15 K, 101 kPa	1209.6 kg/m3 and 1209.39 kg/m3
413.15 K, 5006 kPa	1213.19 kg/m3
413.15 K, 80334 kPa	1262.84 kg/m3
413.15 K, 89994 kPa	1268.07 kg/m3
413.15 K, 109886 kPa	1278.08 kg/m3
413.17 K, 129886 kPa	1287.14 kg/m3
413.17 K, 139479 kPa	1291.12 kg/m3
413.18 K, 69993 kPa	1256.95 kg/m3
413.18 K, 119193 kPa	1282.42 kg/m3
413.2 K, 10288 kPa	1217.19 kg/m3
413.2 K, 19961 kPa	1224.32 kg/m3
413.2 K, 29916 kPa	1231.38 kg/m3
413.2 K, 39957 kPa	1238.21 kg/m3
413.2 K, 49993 kPa	1244.75 kg/m3
413.21 K, 59956 kPa	1250.96 kg/m3
